What was measured:
[1] = target: T1, NPSR Ile^107 (Homo sapiens, UniProt Q6W5P4, N107I); test: Intracellular Ca2+ mobilization (FLIPR) in HEK 293 cells stably expressing NPSR Ile107; format: cell-based; conditions: Ca2+ mobilization, cAMP formation or MAPK phosphorylation
T1 construct: The Ile^107 isoform of NPSR was generated by PCR using synthetic oligonucleotides and the Quik Change Site-Directed Mutagenesis kit from Stratagene; expressed in transfected cells
T1 sequence (Q6W5P4 1-371 N107I): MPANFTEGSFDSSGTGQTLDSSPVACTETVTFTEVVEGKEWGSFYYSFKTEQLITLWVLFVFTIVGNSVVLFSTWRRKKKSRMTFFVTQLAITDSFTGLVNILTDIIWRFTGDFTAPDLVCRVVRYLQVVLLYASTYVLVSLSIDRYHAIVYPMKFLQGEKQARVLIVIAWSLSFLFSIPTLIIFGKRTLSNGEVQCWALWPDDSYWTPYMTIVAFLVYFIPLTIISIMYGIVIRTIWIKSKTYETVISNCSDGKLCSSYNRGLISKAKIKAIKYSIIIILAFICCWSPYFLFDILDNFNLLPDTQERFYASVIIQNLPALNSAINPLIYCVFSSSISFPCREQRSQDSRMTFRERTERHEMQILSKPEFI
Protocol: Changes of agonist-induced intracellular Ca^2+ were measured using the FLIPR technology as described before (5, 6). NPS and truncated NPS peptides were a gift from Phoenix Pharmaceuticals (Belmont, Calif.). Dose-response curves were calculated using GraphPad Prism (Graph Pad, San Diego). Mean EC50 values of populations of stable clones expressing either wildtype or mutant NPSR were compared using unpaired t-test and p<0.05 was considered significant.
Two cells lines expressing similar levels (measured by radioligand binding; see below) of either NPSR WT or NPSR Ile were chosen for detailed analyses of pharmacological parameters. […] In order to investigate whether this tenfold increase in agonist potency at NPSR lie was a general property of the receptor protein we compared a large number of stable clones expressing either NPSR WT or NPSR Ile^107 by establishing dose-response curves for each construct and calculating mean EC50 values for the populations.

[2] = tested on: C57Bl/6 mice; test: Open field test; format: in vivo; conditions: naive mice, i.c.v.
Protocol: Naïve mice were tested in the open field, a paradigm of free exploratory behavior in a novel environment. […] In order to further study NPS effects on stress as it relates to anxiety, two additional tests were performed that are based on the natural aversion of rodents to open or unprotected spaces: the light-dark box and the elevated plus maze (FIG. 8B, C).
Male C57Bl/6 mice (National Cancer Institute, Bethesda, MD), age 10-14 weeks, were group-housed (4 animals per cage) under controlled conditions (temperature 21±2° C.; relative humidity 50-60%; 12-hour light-dark cycle, lights on 6:00 AM) with free access to food and water. Prior to drug injections, mice were briefly anesthetized with halothane. NPS was dissolved in phosphate-buffered saline (PBS, pH 7.4) and injected i.c.v. (total volume: 2 μl) as described before (Laursen and Belknap, 1986). […]
Locomotion was monitored in rectangular plexiglass boxes (60×40×50 cm). Horizontal activity was measured over 60 min by 18×12 infrared sensors placed 2 cm above the floor. […] Marble burying was measured in mice placed individually in polypropylene cages (30×18×12 cm) containing 18 glass marbles (1.5 cm diameter) evenly spaced on 5 cm deep rodent bedding (bed-o'cob, The Andersons Inc., Maumee, Ohio) (Njung'e and Handley, 1991). […] Cages were covered with a metal grid and the number of marbles covered at least two-thirds was counted after 30 min.

[3] = target: T1, NPSR Ile^107; test: CRE-luciferase reporter gene assay, HEK 293 cells, NPSR Ile107; format: cell-based; conditions: transiently transfected HEK cells
Excerpt: HEK 293 cells were stably transfected with a reporter gene containing 6 copies of a cAMP response element (CRE; sequence […]) in front of a luciferase reporter gene (Promega) cloned into pcDNA3.1 neo. One stable clone showing robust induction of reporter gene expression after forskolin challenge was chosen for further experiments. The different NPSR isoform cDNAs (cloned into pcDNA3.1 hygro) were transfected into these cells using lipofectamine and stable clones were selected. The same cells and procedures were also used for transient transfection. For induction of reporter gene expression cells were plated in 96-well plates and incubated with agonist for 5 hours in serum-free medium, followed by aspiration of the medium and cell lysis with 25 mM Tris-phosphate, pH 7.8, 2 mM dithiothreitol, 2 mM 1,2-diaminocyclohexane-N,N,N′,N′,-tetraacetic acid, 10% glycerol, 1% Triton X-100. After one freeze-thaw cycle aliquots of supernatant were transferred to white clear-bottom 96-well plates (Greiner) and luciferase content was quantified by bioluminescence (Luc-Screen, Applied Biosystems). Plates were counted in a scintillation counter using bioluminescence settings (MicroBeta, Wallac-Perkin Elmer).

[4] = tested on: C57Bl/6 mice; test: Elevated plus maze; format: in vivo
Protocol: Male C57Bl/6 mice (National Cancer Institute, Bethesda, MD), age 10-14 weeks, were group-housed (4 animals per cage) under controlled conditions (temperature 21±2° C.; relative humidity 50-60%; 12-hour light-dark cycle, lights on 6:00 AM) with free access to food and water. Prior to drug injections, mice were briefly anesthetized with halothane. NPS was dissolved in phosphate-buffered saline (PBS, pH 7.4) and injected i.c.v. (total volume: 2 μl) as described before (Laursen and Belknap, 1986). Mice were allowed to recover for 5 min and then placed in the observation apparatus.
Locomotion was monitored in rectangular plexiglass boxes (60×40×50 cm). Horizontal activity was measured over 60 min by 18×12 infrared sensors placed 2 cm above the floor. A second row of sensors at 8 cm above the floor was used to record rearing events. The imaginary central zone was defined as a 30×20 cm rectangle in the middle of each observation area. Data were collected using MatLab (Mathworks, Natick, Mass.). Experimental procedures for open field, elevated plus-maze and light-dark box were described previously (Köster et al., 1999). Marble burying was measured in mice placed individually in polypropylene cages (30×18×12 cm) containing 18 glass marbles (1.5 cm diameter) evenly spaced on 5 cm deep rodent bedding (bed-o'cob, The Andersons Inc., Maumee, Ohio) (Njung'e and Handley, 1991). No food or water was present during the observation period. Cages were covered with a metal grid and the number of marbles covered at least two-thirds was counted after 30 min.

[5] = tested on: human colon cancer cell line DLD-1; test: Cell proliferation, [3H]-thymidine incorporation in DLD-1 cells (negative control line); format: cell-based; conditions: no NPSR transcripts
Protocol: Cells were seeded in 24-well plates and grown overnight to 60-70% confluency. Following 24 h serum-starvation, 2 μCi of methyl-[^3H] thymidine was added together with increasing concentrations of NPS. 500 nM PGE2 served as a positive control. After 3 h incubation cells were washed 3 times with PBS and then lysed with 0.5 N NaOH. The lysate was neutralized with 0.5 N HCl and aliquots were counted in a liquid scintillation counter for incorporated radioactivity.

- efficacy at NPSR Ile107 as compared to the wildtype receptor [1]: ten-fold
Substance: NPS: neuropeptide S, endogenous NPSR ligand; species of the peptide not stated at the place of the result (SFRNGVGTGMKKTSFQRAKS)
- number of entries in the central zone ([2]; first 10 minutes): significantly increased
- ambulations in the outer zones of the open field ([2]; same doses): increased
- maximum of reporter gene expression relative to NPSR WT or NPSR C-alt [3]: about 2 fold
- number of transitions from closed to open arms ([4]; 0.1 and 1 nmole i.c.v.): higher number of transitions
- time on the open arms ([4]; 0.1 and 1 nmole i.c.v.): significantly more time
- closed-closed transitions (general activity) ([4]; all doses i.c.v.): did not reach statistical significance
- thymidine incorporation [5]: no NPS-dependent thymidine incorporation
